Starred links: 1 amine or outer side, 2 acyl side, 3 side chain; linkers in the order of their positions; H or OH if unused. Positions of bridges follow the written chain, without caps; N, C: chain ends. Non-standard residues stand in square brackets, D forms with d. Residues, ends and D or L forms follow the SMILES beside them. Chains are numbered I, II in the order given. Actinocin(9to1) = Cc1c2oc3c(C)ccc(C(=O)[*:1])c3nc-2c(C(=O)[*:2])c(N)c1=O; NMeV = CN[C@H](C(=O)O)C(C)C; Sar = CNCC(=O)O
Legend:
Format in all cases: cell-based, human
MCF-7/ADR = experiment: Cytotoxic assay, MDR reversing effect with Adriamycin in resistant breast carcinoma cells
Description: (§1) Cell Culture: HCT116/VM46 cells were selected from human colon carcinoma HCT116 cell line for resistance to VM26 and MCF-7/ADR cells were selected from human breast carcinoma MCF-7 cell line for resistance to Adriamycin. […] The cell lines were grown in tissue culture flasks containing McCoy's 5A medium and 10% fetal bovine serum. Cells were maintained at 37°C in a humidified atmosphere containing 5% C02 and subcultured every 5 days.
(§2) Cytotoxic Assay: The cells were seeded in 96 well microtiter plates at 5x10^3 cells per well and allowed to grow for 24 hours at 37 °C. Cells were then incubated with decreasing amounts of antitumor agents: Adriamycin (100 µM, maximal concentration) or actinomycin D (17.6 ng/ml), for MCF-7 and HCT-116 cells, respectively. Chemosensitizers were added at variable concentrations ranging from 0.08 µM to […]. In parallel, verapamil was used as positive control at the same concentrations. After 48 hours of incubation, the cells were washed, fixed and stained with crystal violet. Absorbance was read by Molecular Devices' microtiter plate reader at the wavelength of 595nm. The IC50 value (50% inhibition of cell growth) was determined from relative survival rates resulted from two to three independent experiments. The term "fold resistance" was defined as the ratio of the IC50 for antitumor drug in the presence or absence of chemosensitizer in resistant cells divided by the IC50 for antitumor drug in its sensitive counterpart. This value provides an estimate of the apparent potency of each reversing agent in enhancing drug effect.

HCT-116/VM46 = experiment: Cytotoxic assay, MDR reversing effect with actinomycin D in resistant colon carcinoma cells
Description: as §1, §2

HCT116 = experiment: Cytotoxic assay, actinomycin D in sensitive colon carcinoma cells; conditions: no chemosensitizer
Description: as §1
as §2, with “The term "fold resistance" was defined as the ratio of the IC50 for antitumor drug in the presence or absence of chemosensitizer in resistant cells divided by the IC50 for antitumor drug in its sensitive counterpart. This value provides an estimate of the apparent potency of each reversing agent in enhancing drug effect.” left out

[1] = ActD IC50 in HCT-116/VM46 with chemosensitizer 0.4 μM divided by ActD IC50 in sensitive HCT116
[2] = ADR IC50 in MCF-7/ADR with chemosensitizer 0.67 µM divided by ADR IC50 in sensitive MCF-7

COc1cccc2c1C(=O)c1c(O)c3c(c(O)c1C2=O)C[C@@](O)(C(=O)CO)C[C@@H]3O[C@H]1C[C@H](N)[C@H](O)[C@H](C)O1 [ADR, Adriamycin]
IC50 (MCF-7/ADR; Homo sapiens, NCI/ADR-RES, 48 h, MCF-7/ADR cells, no chemosensitizer): 50 µM | Fold Resistance (MCF-7/ADR; MCF-7/ADR versus MCF-7, ADR, no chemosensitizer): 138.9

Cc1c2oc3c(C)ccc(C(=O)N[C@@H]4C(=O)N[C@H](C(C)C)C(=O)N5CCC[C@H]5C(=O)N(C)CC(=O)N(C)[C@@H](C(C)C)C(=O)O[C@@H]4C)c3nc-2c(C(=O)N[C@@H]2C(=O)N[C@H](C(C)C)C(=O)N3CCC[C@H]3C(=O)N(C)CC(=O)N(C)[C@@H](C(C)C)C(=O)O[C@@H]2C)c(N)c1=O [ActD, Actinomycin D] (I: T[dV]P[Sar][NMeV] / II: T[dV]P[Sar][NMeV]; ester I:1-I:C, II:1-II:C; linker I:N-II:N via Actinocin(9to1))
ActD IC50 (HCT-116/VM46; HCT-116/VM46 cells, no chemosensitizer): 10 ng/mL | Fold Resistance (HCT-116/VM46; HCT-116/VM46 versus HCT116, ActD, no chemosensitizer): 20.0 | ActD IC50 (HCT116): 0.5 ng/mL

CCN(CC)CCN(C(=O)c1cc(Cl)c(N)cc1Oc1ccc(C(F)(F)F)cc1[N+](=O)[O-])c1ccc(C(F)(F)F)cc1[N+](=O)[O-] [Ia]
Fold Resistance (HCT-116/VM46; [1]): 11.0

CCN(CC)CCNC(=O)c1cc(Cl)c(N)cc1OCCCc1ccccc1 [Ic, 4-Amino-5-chloro-N-[2-(diethylamino)ethyl]-2-[3-(phenyl)pronoxy]benzamide]
Fold Resistance (HCT-116/VM46; [1]): 9.8

C/C=C/C(=O)Nc1cc(OCCSc2ccccc2)c(C(=O)NCCN(CC)CC)cc1Cl [If, 5-Chloro-4-crotonylamino-N-[2-(diethylamino)ethyl]-2-[2-(phenylthio)ethoxy]benzamide]
Fold Resistance (MCF-7/ADR; [2]): 28.6 | Fold Resistance (HCT-116/VM46; [1]): 4.8

CCN(CC)CCN(C(=O)c1cc(Cl)c(N)cc1Oc1ccc([N+](=O)[O-])cc1)c1ccc([N+](=O)[O-])cc1 [Ii, 4-Amino-5-chloro-N-[2-(diethylamino)ethyl]-2-(4-nitrophenoxy)-N-(4-nitrophenyl)benzamide]
Fold Resistance (HCT-116/VM46; [1]): 9.8

COc1ccc(CCN(C)CCCC(C#N)(c2ccc(OC)c(OC)c2)C(C)C)cc1OC (stereo not drawn) [Verapamil, verapamil]
Fold Resistance (MCF-7/ADR; [2]): 63.9 | Fold Resistance (HCT-116/VM46; [1]): 11.6
